Reference: the supplement of paper PMC10307832

Experiments:
Experiment in all cases: relative viability (nuclei count vs DMSO), 5 days (fraction); higher = more cells survive
ABC-1 = tested on: ABC-1
How it was run: (§1)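 Cells from lung cancer lines were seeded into 1536-well plates and, one day later, dosed by pin tool. Treatments were either a single drug or a fixed dose of an anchor drug with five library-drug doses (not always all listed) in √10 steps. After 5 days, nuclei were stained in a one-step fixation (final 0.05% Triton X-100, 1% formaldehyde, 1 ug/ml Hoechst) and counted on 4× images, and relative viability is the treated-to-vehicle nuclei ratio, as the median of duplicate plates.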

CAL-12T = tested on: CAL-12T
How it was run: as §1

COR-L 105 = tested on: COR-L 105
How it was run: as §1

ChaGo-K-1 = tested on: ChaGo-K-1
How it was run: as §1

EMC-BAC-2 = tested on: EMC-BAC-2
How it was run: as §1

EPLC-272H = tested on: EPLC-272H
How it was run: as §1

HCC-15 = tested on: HCC-15
How it was run: as §1

HCC-78 = tested on: HCC-78
How it was run: as §1

HOP-62 = tested on: HOP-62
How it was run: as §1

LXF-289 = tested on: LXF-289
How it was run: as §1

NCI-H1666 = tested on: NCI-H1666
How it was run: as §1

NCI-H1755 = tested on: NCI-H1755
How it was run: as §1

NCI-H1915 = tested on: NCI-H1915
How it was run: as §1

NCI-H1975 = tested on: NCI-H1975
How it was run: as §1

NCI-H2023 = tested on: NCI-H2023
How it was run: as §1

NCI-H2085 = tested on: NCI-H2085
How it was run: as §1

NCI-H2126 = tested on: NCI-H2126
How it was run: as §1

NCI-H3122 = tested on: NCI-H3122
How it was run: as §1

NCI-H322M = tested on: NCI-H322M
How it was run: as §1

NCI-H358 = tested on: NCI-H358
How it was run: as §1

NCI-H441 = tested on: NCI-H441
How it was run: as §1

UMC-11 = tested on: UMC-11
How it was run: as §1

Cc1sc2c(c1C)C(c1ccc(Cl)cc1)=N[C@@H](CC(=O)OC(C)(C)C)c1nnc(C)n1-2 [JQ1] + C[C@@H](Oc1cc(-c2cnn(C3CCNCC3)c2)cnc1N)c1c(Cl)ccc(F)c1Cl [Crizotinib] (partner 1 µM)
relative viability (ABC-1; first compound 0.04 µM): 0.844 | relative viability (ABC-1; first compound 0.1265 µM): 1.09 | relative viability (ABC-1; first compound 0.4 µM): 0.988 | relative viability (ABC-1; first compound 1.265 µM): 0.569 | relative viability (ABC-1; first compound 4 µM): 0.276 | relative viability (CAL-12T; first compound 0.04 µM): 0.528 | relative viability (CAL-12T; first compound 0.1265 µM): 0.316 | relative viability (CAL-12T; first compound 0.4 µM): 0.316 | relative viability (CAL-12T; first compound 1.265 µM): 0.133 | relative viability (CAL-12T; first compound 4 µM): 0.103 | relative viability (COR-L 105; first compound 0.04 µM): 0.705 | relative viability (COR-L 105; first compound 0.1265 µM): 0.25 | relative viability (COR-L 105; first compound 0.4 µM): 0.403 | relative viability (COR-L 105; first compound 1.265 µM): 0.245 | relative viability (COR-L 105; first compound 4 µM): 0.267 | relative viability (ChaGo-K-1; first compound 0.04 µM): 1.04 | relative viability (ChaGo-K-1; first compound 0.4 µM): 0.689 | relative viability (ChaGo-K-1; first compound 1.265 µM): 0.513 | relative viability (ChaGo-K-1; first compound 4 µM): 0.387 | relative viability (EMC-BAC-2; first compound 0.04 µM): 0.737 | relative viability (EMC-BAC-2; first compound 0.1265 µM): 0.651 | relative viability (EMC-BAC-2; first compound 0.4 µM): 0.504 | relative viability (EMC-BAC-2; first compound 1.265 µM): 0.43 | relative viability (EMC-BAC-2; first compound 4 µM): 0.315 | relative viability (EPLC-272H; first compound 0.04 µM): 0.904 | relative viability (EPLC-272H; first compound 0.1265 µM): 0.759 | relative viability (EPLC-272H; first compound 0.4 µM): 0.885 | relative viability (EPLC-272H; first compound 1.265 µM): 0.364 | relative viability (EPLC-272H; first compound 4 µM): 0.37 | relative viability (HCC-15; first compound 0.04 µM): 0.762 | relative viability (HCC-15; first compound 0.4 µM): 0.75 | relative viability (HCC-15; first compound 1.265 µM): 0.544 | relative viability (HCC-15; first compound 4 µM): 0.441 | relative viability (HCC-78; first compound 0.04 µM): 0.314 | relative viability (HCC-78; first compound 0.1265 µM): 0.33 | relative viability (HCC-78; first compound 0.4 µM): 0.348 | relative viability (HCC-78; first compound 1.265 µM): 0.275 | relative viability (HCC-78; first compound 4 µM): 0.251 | relative viability (HOP-62; first compound 0.04 µM): 0.714 | relative viability (HOP-62; first compound 0.1265 µM): 0.711 | relative viability (HOP-62; first compound 0.4 µM): 0.299 | relative viability (HOP-62; first compound 1.265 µM): 0.119 | relative viability (HOP-62; first compound 4 µM): 0.11 | relative viability (LXF-289; first compound 0.04 µM): 0.84 | relative viability (LXF-289; first compound 0.1265 µM): 0.746 | relative viability (LXF-289; first compound 0.4 µM): 0.743 | relative viability (LXF-289; first compound 1.265 µM): 0.677 | relative viability (LXF-289; first compound 4 µM): 0.479 | relative viability (NCI-H1666; first compound 0.04 µM): 0.771 | relative viability (NCI-H1666; first compound 0.1265 µM): 0.841 | relative viability (NCI-H1666; first compound 0.4 µM): 0.669 | relative viability (NCI-H1666; first compound 1.265 µM): 0.451 | relative viability (NCI-H1666; first compound 4 µM): 0.481 | relative viability (NCI-H1755; first compound 0.04 µM): 0.899 | relative viability (NCI-H1755; first compound 0.1265 µM): 0.854 | relative viability (NCI-H1755; first compound 0.4 µM): 0.901 | relative viability (NCI-H1755; first compound 1.265 µM): 0.67 | relative viability (NCI-H1755; first compound 4 µM): 0.608 | relative viability (NCI-H1915; first compound 0.04 µM): 0.891 | relative viability (NCI-H1915; first compound 0.1265 µM): 0.829 | relative viability (NCI-H1915; first compound 0.4 µM): 0.735 | relative viability (NCI-H1915; first compound 1.265 µM): 0.462 | relative viability (NCI-H1915; first compound 4 µM): 0.233 | relative viability (NCI-H1975; first compound 0.04 µM): 0.891 | relative viability (NCI-H1975; first compound 0.1265 µM): 0.675 | relative viability (NCI-H1975; first compound 0.4 µM): 0.483 | relative viability (NCI-H1975; first compound 1.265 µM): 0.3 | relative viability (NCI-H1975; first compound 4 µM): 0.235 | relative viability (NCI-H2023; first compound 0.04 µM): 0.544 | relative viability (NCI-H2023; first compound 0.1265 µM): 0.543 | relative viability (NCI-H2023; first compound 0.4 µM): 0.485 | relative viability (NCI-H2023; first compound 1.265 µM): 0.227 | relative viability (NCI-H2023; first compound 4 µM): 0.158 | relative viability (NCI-H2085; first compound 0.04 µM): 0.745 | relative viability (NCI-H2085; first compound 0.1265 µM): 0.629 | relative viability (NCI-H2085; first compound 0.4 µM): 0.651 | relative viability (NCI-H2085; first compound 1.265 µM): 0.458 | relative viability (NCI-H2085; first compound 4 µM): 0.448 | relative viability (NCI-H2126; first compound 0.04 µM): 1.04 | relative viability (NCI-H2126; first compound 0.1265 µM): 0.987 | relative viability (NCI-H2126; first compound 0.4 µM): 0.901 | relative viability (NCI-H2126; first compound 1.265 µM): 0.966 | relative viability (NCI-H2126; first compound 4 µM): 0.754 | relative viability (NCI-H3122; first compound 0.04 µM): 0.312 | relative viability (NCI-H3122; first compound 0.1265 µM): 0.315 | relative viability (NCI-H3122; first compound 0.4 µM): 0.354 | relative viability (NCI-H3122; first compound 1.265 µM): 0.323 | relative viability (NCI-H3122; first compound 4 µM): 0.413 | relative viability (NCI-H322M; first compound 0.04 µM): 0.83 | relative viability (NCI-H322M; first compound 0.1265 µM): 0.839 | relative viability (NCI-H322M; first compound 0.4 µM): 0.856 | relative viability (NCI-H322M; first compound 1.265 µM): 0.533 | relative viability (NCI-H322M; first compound 4 µM): 0.458 | relative viability (NCI-H358; first compound 0.04 µM): 0.498 | relative viability (NCI-H358; first compound 0.1265 µM): 0.43 | relative viability (NCI-H358; first compound 0.4 µM): 0.473 | relative viability (NCI-H358; first compound 1.265 µM): 0.228 | relative viability (NCI-H358; first compound 4 µM): 0.25 | relative viability (NCI-H441; first compound 0.04 µM): 0.813 | relative viability (NCI-H441; first compound 0.1265 µM): 0.616 | relative viability (NCI-H441; first compound 0.4 µM): 0.713 | relative viability (NCI-H441; first compound 1.265 µM): 0.297 | relative viability (NCI-H441; first compound 4 µM): 0.221 | relative viability (UMC-11; first compound 0.04 µM): 0.501 | relative viability (UMC-11; first compound 0.1265 µM): 0.659 | relative viability (UMC-11; first compound 0.4 µM): 0.345 | relative viability (UMC-11; first compound 1.265 µM): 0.0933 | relative viability (UMC-11; first compound 4 µM): 0.0983
